For one experiment, the target named is T1, GRK5 (Homo sapiens, UniProt P34947).
T1 construct: purchased Thermo Scientific
Briefly: Lance Kinase Activity Assay, GRK5. To be noted: biochemical Lance kinase activity assay; class symbols A-F; read-out: GRK5 LANCE Assay (IC-50). An outline of the steps: (§1)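 IC50s from sigmoidal dose-response over 0.0025-10 μM compound, with phosphorylated ULight substrate detected by Eu anti-phospho antibody FRET after EDTA quench.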
(In general: In TR-FRET formats the signal depends on donor and acceptor labels being close together.)

For another experiment, the target named is T2, GRK2 (Homo sapiens, UniProt P25098).
T2 construct: purchased Thermo Scientific
T2 sequence (P25098 1-689): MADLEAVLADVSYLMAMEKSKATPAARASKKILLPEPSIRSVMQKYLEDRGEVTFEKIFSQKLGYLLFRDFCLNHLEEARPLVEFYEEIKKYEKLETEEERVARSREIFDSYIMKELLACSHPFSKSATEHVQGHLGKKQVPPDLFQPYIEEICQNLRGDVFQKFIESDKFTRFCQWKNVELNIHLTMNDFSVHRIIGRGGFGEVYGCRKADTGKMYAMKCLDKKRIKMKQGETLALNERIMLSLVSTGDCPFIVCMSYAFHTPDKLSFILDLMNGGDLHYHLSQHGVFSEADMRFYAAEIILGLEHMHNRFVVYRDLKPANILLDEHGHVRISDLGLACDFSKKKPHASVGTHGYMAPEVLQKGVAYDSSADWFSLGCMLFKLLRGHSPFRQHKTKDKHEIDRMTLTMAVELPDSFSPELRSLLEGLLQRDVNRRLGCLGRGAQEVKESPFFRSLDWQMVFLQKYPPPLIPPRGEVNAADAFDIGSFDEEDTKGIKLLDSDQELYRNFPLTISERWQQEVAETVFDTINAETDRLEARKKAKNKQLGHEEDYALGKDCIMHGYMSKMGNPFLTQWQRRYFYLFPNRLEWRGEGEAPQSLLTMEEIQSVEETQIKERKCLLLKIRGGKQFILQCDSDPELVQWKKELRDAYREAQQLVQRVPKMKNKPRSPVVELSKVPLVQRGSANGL
Briefly: Lance Kinase Activity Assay, GRK2. To be noted: biochemical Lance kinase activity assay; class symbols A-F; read-out: GRK2 LANCE Assay (IC-50). A digest of the protocol:
as §1

T1 sequence (P34947 whole entry): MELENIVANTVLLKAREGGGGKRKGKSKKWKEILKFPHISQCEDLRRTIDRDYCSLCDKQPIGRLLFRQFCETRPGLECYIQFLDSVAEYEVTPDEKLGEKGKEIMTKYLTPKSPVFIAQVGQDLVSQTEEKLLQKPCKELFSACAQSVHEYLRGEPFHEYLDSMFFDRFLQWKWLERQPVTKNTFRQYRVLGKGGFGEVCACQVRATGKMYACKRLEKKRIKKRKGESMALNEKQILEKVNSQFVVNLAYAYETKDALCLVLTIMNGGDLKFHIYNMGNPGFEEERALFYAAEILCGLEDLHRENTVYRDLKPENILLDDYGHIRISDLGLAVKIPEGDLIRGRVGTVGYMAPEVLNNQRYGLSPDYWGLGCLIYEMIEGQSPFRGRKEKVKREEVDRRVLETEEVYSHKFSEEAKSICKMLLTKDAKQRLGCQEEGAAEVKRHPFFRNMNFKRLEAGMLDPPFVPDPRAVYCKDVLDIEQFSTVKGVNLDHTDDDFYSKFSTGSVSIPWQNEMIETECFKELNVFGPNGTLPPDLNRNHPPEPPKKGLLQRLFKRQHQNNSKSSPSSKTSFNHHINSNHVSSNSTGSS

For the compound `COc1cc(C(C)NC(=O)/C=C/c2c[nH]c3ncc(-c4cnn(C)c4)cc23)ccc1[S+](C)[O-]` (stereo not shown) [Example 255, (E)-N-(1-(3-methoxy-4-(methylsulfinyl)phenyl)ethyl)-3-(5-(1-methyl-1H-pyrazol-4-yl)-1H-pyrrolo[2,3-b]pyridin-3-yl)acrylamide], the IC50 at GRK5 was 100 to 500 nM; at GRK2, over 10000 nM.

Turning to `CS(=O)(=O)Nc1cccc(CNC(=O)/C(C#N)=C/c2c[nH]c3ncccc23)c1` [Example 29, (E)-2-cyano-N-(3-(methylsulfonamido)benzyl)-3-(1H-pyrrolo[2,3-b]pyridin-3-yl)acrylamide], the IC50 on GRK5 lay within 500 to 1000 nM; on GRK2, 100 to 500 nM.

For `COc1ccc([C@@H](C)NC(=O)/C=C/c2c[nH]c3nccc(-c4ccccc4)c23)cc1OC` [Example 225, (R,E)-N-(1-(3,4-dimethoxyphenyl)ethyl)-3-(4-phenyl-1H-pyrrolo[2,3-b]pyridin-3-yl)acrylamide], the IC50 at GRK5 is 50 to 100 nM; on GRK2, 1000 to 10000 nM.

Consider `N#C/C(=C\c1c[nH]c2ncccc12)C(=O)NCc1ccc(F)c(F)c1` [Example 66, (E)-2-cyano-N-(3,4-difluorobenzyl)-3-(1H-pyrrolo[2,3-b]pyridin-3-yl)acrylamide], for which the IC50 on GRK5 and at GRK2 was 100 to 500 nM throughout.

Take `C[C@@H](NC(=O)/C(C#N)=C/c1c[nH]c2nccc(Cl)c12)c1ccc(F)cc1` [Example 78, (R,E)-3-(4-chloro-1H-pyrrolo[2,3-b]pyridin-3-yl)-2-cyano-N-(1-(4-fluorophenyl)ethyl)acrylamide]: the IC50 lay in the range of 100 to 500 nM at GRK5 and 500 to 1000 nM at GRK2.

Regarding `COc1ccc([C@@H](C)NC(=O)/C(C#N)=C/c2c[nH]c3nc(Br)ccc23)cc1OC` [Example 90, (R,E)-3-(6-bromo-1H-pyrrolo[2,3-b]pyridin-3-yl)-2-cyano-N-(1-(3,4-dimethoxyphenyl)ethyl)acrylamide], the IC50 on GRK5 was 100 to 500 nM; on GRK2 it was over 10000 nM.

In the case of `COc1ccc([C@@H](C)NC(=O)/C(C#N)=C\c2c[nH]c3ncc(-c4ccc(C#N)cc4)cc23)cc1OC` [Example 140, (R,Z)-2-cyano-3-(5-(4-cyanophenyl)-1H-pyrrolo[2,3-b]pyridin-3-yl)-N-(1-(3,4-dimethoxyphenyl)ethyl)acrylamide], the IC50 on GRK5 is at most 50 nM; on GRK2 it was over 10000 nM.

Take `COc1ccc([C@@H](C)NC(=O)/C=C/c2c[nH]c3nccc(-c4cnn(C)c4C)c23)cc1OC` [Example 237, (R,E)-N-(1-(3,4-dimethoxyphenyl)ethyl)-3-(4-(1,5-dimethyl-1H-pyrazol-4-yl)-1H-pyrrolo[2,3-b]pyridin-3-yl)acrylamide]: the IC50 on GRK5 is 100 to 500 nM; at GRK2 it was over 10000 nM.

Consider `COc1ccc([C@@H](C)NC(=O)/C=C/c2c[nH]c3nccc(-c4cccc(N(C)C)c4)c23)cc1OC` [Example 228, (R,E)-N-(1-(3,4-dimethoxyphenyl)ethyl)-3-(4-(3-(dimethylamino)phenyl)-1H-pyrrolo[2,3-b]pyridin-3-yl)acrylamide], for which the figures for the IC50 at GRK5 and at GRK2 were 50 to 100 nM and 1000 to 10000 nM, respectively.

For `COc1ccc([C@@H](C)NC(=O)/C=C/c2c[nH]c3ncc(-c4ccc(CN5CCOCC5)cc4)cc23)cc1OC` [Example 194], the figures for the IC50 on GRK5 and on GRK2 were at most 50 nM and 1000 to 10000 nM, respectively.

`COc1ccc([C@@H](C)NC(=O)/C(C#N)=C/c2c[nH]c3ncc(C4=CCCC4)cc23)cc1OC` [Example 158, (R,E)-2-cyano-3-(5-(cyclopent-1-en-1-yl)-1H-pyrrolo[2,3-b]pyridin-3-yl)-N-(1-(3,4-dimethoxyphenyl)ethyl)acrylamide]: the values for the IC50 at GRK5 and on GRK2 were at most 50 nM and over 10000 nM, respectively.

As for `COc1ccc([C@@H](C)NC(=O)/C(C#N)=C/c2c[nH]c3ncc(-c4ccc(N5CCN(C)CC5)cc4)c(C)c23)cc1OC` [Example 244, (R,E)-2-cyano-N-(1-(3,4-dimethoxyphenyl)ethyl)-3-(4-methyl-5-(4-(4-methylpiperazin-1-yl)phenyl)-1H-pyrrolo[2,3-b]pyridin-3-yl)acrylamide], the IC50 lay within 500 to 1000 nM on GRK5 and 1000 to 10000 nM on GRK2.

As for `COc1ccc([C@@H](C)NC(=O)/C(C#N)=C/c2c[nH]c3ncc(-c4cn[nH]c4)cc23)cc1OC` [Example 163], the IC50 on GRK5 is at most 50 nM; at GRK2 it was 1000 to 10000 nM.

Take `C[C@@H](NC(=O)/C(C#N)=C/c1c[nH]c2ncc(Cl)cc12)c1ccc(F)cc1` [Example 76, (R,E)-3-(5-chloro-1H-pyrrolo[2,3-b]pyridin-3-yl)-2-cyano-N-(1-(4-fluorophenyl)ethyl)acrylamide]: the results for the IC50 on GRK5 and at GRK2 were 100 to 500 nM and 500 to 1000 nM, respectively.

Take `N#C/C(=C\c1c[nH]c2ncccc12)C(=O)NCc1cccc(C(N)=O)c1` [Example 28, (E)-3-((2-cyano-3-(1H-pyrrolo[2,3-b]pyridin-3-yl)acrylamido)methyl)benzamide]: the IC50 at GRK5 fell in the range of 500 to 1000 nM; at GRK2 it was 100 to 500 nM.

Take `COc1cc(C(C)NC(=O)/C(C#N)=C/c2c[nH]c3ncc(-c4cnn(C)c4)cc23)ccc1[S+](C)[O-]` (stereo not shown) [Example 256, (E)-2-cyano-N-(1-(3-methoxy-4-(methylsulfinyl)phenyl)ethyl)-3-(5-(1-methyl-1H-pyrazol-4-yl)-1H-pyrrolo[2,3-b]pyridin-3-yl)acrylamide]: the values for the IC50 on GRK5 and on GRK2 were 50 to 100 nM and 1000 to 10000 nM, respectively.

Regarding `Cc1c(-c2cnn(C)c2)cnc2[nH]cc(/C=C(\C#N)C(=O)N[C@H](C)c3ccc(F)cc3)c12` [Example 98, (R,E)-2-cyano-N-(1-(4-fluorophenyl)ethyl)-3-(4-methyl-5-(1-methyl-1H-pyrazol-4-yl)-1H-pyrrolo[2,3-b]pyridin-3-yl)acrylamide], the IC50 at GRK5 and at GRK2 was 500 to 1000 nM each time.

For `COc1ccc([C@@H](C)NC(=O)/C=C/c2c[nH]c3ncc(-c4ccc(C(N)=O)cc4)cc23)cc1OC` [Example 200, (R,E)-4-(3-(3-((1-(3,4-dimethoxyphenyl)ethyl)amino)-3-oxoprop-1-en-1-yl)-1H-pyrrolo[2,3-b]pyridin-5-yl)benzamide], the figures for the IC50 on GRK5 and on GRK2 were at most 50 nM and 1000 to 10000 nM, respectively.

As for `COc1ccc([C@@H](C)NC(=O)/C(C#N)=C/c2c[nH]c3ncc(-c4ccc(C(F)(F)F)cc4)cc23)cc1OC` [Example 119], the values for the IC50 at GRK5 and at GRK2 were 1000 to 10000 nM and over 10000 nM, respectively.

Consider `CS(=O)(=O)Nc1ccccc1CNC(=O)/C(C#N)=C/c1c[nH]c2ncccc12` [Example 42, (E)-2-cyano-N-(2-(methylsulfonamido)benzyl)-3-(1H-pyrrolo[2,3-b]pyridin-3-yl)acrylamide], for which the values for the IC50 at GRK5 and at GRK2 were 500 to 1000 nM and 1000 to 10000 nM, respectively.

Take `C[C@@H](NC(=O)/C(C#N)=C/c1c[nH]c2ncccc12)c1cccc(Cl)c1` [Example 13, (R,E)-N-(1-(3-chlorophenyl)ethyl)-2-cyano-3-(1H-pyrrolo[2,3-b]pyridin-3-yl)acrylamide]: the IC50 lay within 50 to 100 nM on GRK5 and 100 to 500 nM on GRK2.

As for `COc1ccc([C@@H](C)NC(=O)/C(C#N)=C/c2c[nH]c3ncc(-c4ccccc4CN4CCCCC4)cc23)cc1OC` [Example 129, (R,E)-2-cyano-N-(1-(3,4-dimethoxyphenyl)ethyl)-3-(5-(2-(piperidin-1-ylmethyl)phenyl)-1H-pyrrolo[2,3-b]pyridin-3-yl)acrylamide], the IC50 is 1000 to 10000 nM on GRK5 and over 10000 nM at GRK2.

On to `COc1ccc([C@@H](C)NC(=O)/C(C#N)=C/c2c[nH]c3ncc(O)cc23)cc1OC` [Example 81, (R,E)-2-cyano-N-(1-(3,4-dimethoxyphenyl)ethyl)-3-(5-hydroxy-1H-pyrrolo[2,3-b]pyridin-3-yl)acrylamide], for which the IC50 at GRK5 is at most 50 nM; on GRK2, 1000 to 10000 nM.

For `CCN1CCN(S(=O)(=O)c2ccc(-c3cnc4[nH]cc(/C=C(\C#N)C(=O)N[C@H](C)c5ccc(OC)c(OC)c5)c4c3)cc2)CC1` [Example 121, (R,E)-2-cyano-N-(1-(3,4-dimethoxyphenyl)ethyl)-3-(5-(4-((4-ethylpiperazin-1-yl)sulfonyl)phenyl)-1H-pyrrolo[2,3-b]pyridin-3-yl)acrylamide], the IC50 at GRK5 is 100 to 500 nM; on GRK2, over 10000 nM.

Turning to `COc1ccc([C@@H](C)NC(=O)/C(C#N)=C/c2c[nH]c3ncc(OC4CCOCC4)cc23)cc1OC` [Example 111, (R,E)-2-cyano-N-(1-(3,4-dimethoxyphenyl)ethyl)-3-(5-((tetrahydro-2H-pyran-4-yl)oxy)-1H-pyrrolo[2,3-b]pyridin-3-yl)acrylamide], the figures for the IC50 at GRK5 and on GRK2 were at most 50 nM and 1000 to 10000 nM, respectively.

For the compound `C[C@@H](NC(=O)/C(C#N)=C/c1c[nH]c2ncccc12)c1ccc(Cl)cc1` [Example 70, (R,E)-N-(1-(4-chlorophenyl)ethyl)-2-cyano-3-(1H-pyrrolo[2,3-b]pyridin-3-yl)acrylamide], the values for the IC50 on GRK5 and at GRK2 were 100 to 500 nM and 500 to 1000 nM, respectively.

Source of the values: patent publication US20240294522A1 (Lead Discovery Center GmbH, priority 2021, published 2024).
